How the values were obtained:
salmon sperm DNA = experiment: Fluorescence intensity of dye in PBS containing salmon sperm DNA; type: binding; details: for Relative fluorescence intensity, after binding DNA: bound with salmon sperm DNA; for Maximum excitation peak of the dye/DNA complexes: room temperature; for Ratio of increase in fluorescence (after vs before binding): salmon sperm DNA in PBS; for Fluorescence emission strength of the dye/DNA complexes: with increase in DNA concentration / on complex formation, PBS
Procedure: A certain amount of Dye-1 was accurately weighed and sufficiently dissolved in 2.5 mL of methanol/ethylene glycol (50:50 vol/vol) to prepare a dye solution at a concentration of 5 mM. This solution was filtered before use. Separate amounts of salmon sperm DNA were weighed and dissolved in PBS to obtain PBS buffers containing 3 mg/mL, 1 mg/mL, 0.3 mg/mL, 0.1 mg/mL of DNA. 2 μL aliquots of the prepared 5 mM dye solution were accurately measured and respectively combined in 1 mL of PBS with 1 μL of the PBS buffers containing different concentrations of DNA. After reacting for a period of time, the complexes were detected for their emission spectra at the selected excitation wavelength (which the skilled artisan would understand is the maximum absorption wavelength of the dye. See, e.g., Table 1). The detection was performed at room temperature. The instrument used was fluorescence spectrophotometer Model FL-4500. […] The detection procedures followed were those described in Example 10 and Example 11. The fluorescence spectra for the complexes of Dye-3 and different concentrations of DNA or RNA are shown in FIG. 6 and FIG. 7, respectively. The comparisons of fluorescence intensity for Dye-3 before and after it is bound with DNA or with RNA in PBS are shown in FIG. 8 and FIG. 9, respectively.

[1] = tested on: soft-shelled turtle (Trionyx sinensis) liver RNA; experiment: Fluorescence intensity of dye in PBS containing soft-shelled turtle liver RNA; type: binding; details: for Relative fluorescence intensity, after binding RNA / Maximum excitation peak of the dye/RNA complexes / Relative fluorescence intensity, before binding RNA: in PBS; for Relative fluorescence intensity, after binding RNA: bound with soft-shelled turtle liver RNA; for Maximum excitation peak of the dye/RNA complexes: room temperature; for Relative fluorescence intensity, before binding RNA: without RNA; for Ratio of increase in fluorescence (after vs before binding): soft-shelled turtle liver RNA in PBS; for Fluorescence emission strength of the dye/RNA complexes: with increase in RNA concentration / on complex formation, PBS
Procedure: A certain amount of Dye-1 was accurately weighed and sufficiently dissolved in 2.5 mL of methanol/ethylene glycol (50:50 vol/vol) to prepare a dye solution at a concentration of 5 mM. This solution was filtered before use. Separate amounts of freshly prepared soft-shelled turtle (Trionyx sinensis) liver RNA were weighed and dissolved in PBS to obtain PBS buffers containing 100 μg/mL, 30 μg/mL, 10 μg/mL, 3 μg/mL of RNA. 2 μL aliquots of the prepared 5 mM dye solution were accurately measured and respectively combined in 1 mL of PBS with 1 μL of the PBS buffers containing different concentrations of RNA. After reacting for a period of time, the complexes were detected for their emission spectra at the selected excitation wavelength (which the skilled artisan would understand is the maximum absorption wavelength of the dye. See, e.g., Table 1). The detection temperature was at room temperature. The instrument used was fluorescence spectrophotometer Model FL-4500. […] The detection procedures followed were those described in Example 10 and Example 11. The fluorescence spectra for the complexes of Dye-3 and different concentrations of DNA or RNA are shown in FIG. 6 and FIG. 7, respectively. The comparisons of fluorescence intensity for Dye-3 before and after it is bound with DNA or with RNA in PBS are shown in FIG. 8 and FIG. 9, respectively.

[2] = Detection of the absorption peak of the fluorescent dyes (UV-visible spectrophotometer, after standing at different temperatures); type: physicochemical; details: for Maximum absorption peak of the compounds disclosed: methanol/ethylene glycol (50:50 vol/vol), light-proof; for Maximum absorption peak: methanol/ethylene glycol, given with the synthesis example
Procedure: A certain amount of an asymmetric cyanine compound was accurately weighed and sufficiently dissolved in 2.5 mL of methanol/ethylene glycol solution (50:50 vol/vol) to prepare a fluorescent dye solution at a concentration of 5 mM. Four parts of 5 μL aliquots of the fluorescent dye solution were each diluted in 2 mL of methanol/ethylene glycol solution (50:50 vol/vol) and were let stand under a hermetic and light-proof condition at 0° C., 20° C., 40° C. and 60° C. respectively for 48 hours. The maximum absorption peak was detected using a ultraviolet-visible spectrophotometer.

[3] = after standing at 0° C. for 48 hours
[4] = after standing at 20° C. for 48 hours
[5] = after standing at 40° C. for 48 hours
[6] = after standing at 60° C. for 48 hours

SMILES	Relative fluorescence intensity, after binding DNA (salmon sperm DNA; in PBS)	Ratio of increase in fluorescence (after vs before binding) (salmon sperm DNA)	Relative fluorescence intensity, after binding RNA [1]	Relative fluorescence intensity, before binding RNA [1]	Ratio of increase in fluorescence (after vs before binding) [1]	Maximum absorption peak of the compounds disclosed [2, 3] [nm]	Maximum absorption peak of the compounds disclosed [2, 4] [nm]	Maximum absorption peak of the compounds disclosed [2, 5] [nm]	Maximum absorption peak of the compounds disclosed [2, 6] [nm]	Maximum absorption peak [2] [nm]	Relative fluorescence intensity, before binding DNA (salmon sperm DNA; in PBS, without salmon sperm DNA)	Shift of the position of the maximum absorption peak as a function of temperature ([2]; 0° C., 20° C., 40° C. and 60° C. for 48 hours)	Maximum excitation peak of the dye/DNA complexes (salmon sperm DNA; in PBS)	Fluorescence emission strength of the dye/DNA complexes (salmon sperm DNA)	Maximum excitation peak of the dye/RNA complexes [1]	Fluorescence emission strength of the dye/RNA complexes [1]
CCN1C=C/C(=C\C=C\c2sc3ccccc3[n+]2CCOC(C)=O)c2ccc(Cl)cc21 [Dye-2]	–	–	–	–	–	639	639	639	639	639	–	–	–	–	–	–
CCN1C=C/C(=C\C=C\c2sc3ccccc3[n+]2CCO)c2ccc(Cl)cc21 [Dye-4]	–	–	–	–	–	639	639	639	639	639	–	–	–	–	–	–
CC[n+]1c(/C=C/C=C2\C=CN(CCO)c3ccccc32)sc2ccc(Br)cc21 [Dye-5]	–	–	–	–	–	640	640	640	640	640	–	–	–	–	–	–

Second part, led by results:

Relative fluorescence intensity, after binding DNA (salmon sperm DNA; in PBS)	Ratio of increase in fluorescence (after vs before binding) (salmon sperm DNA)	Relative fluorescence intensity, after binding RNA [1]	Relative fluorescence intensity, before binding RNA [1]	Ratio of increase in fluorescence (after vs before binding) [1]	Maximum absorption peak of the compounds disclosed [2, 3] [nm]	Maximum absorption peak of the compounds disclosed [2, 4] [nm]	Maximum absorption peak of the compounds disclosed [2, 5] [nm]	Maximum absorption peak of the compounds disclosed [2, 6] [nm]	Maximum absorption peak [2] [nm]	Relative fluorescence intensity, before binding DNA (salmon sperm DNA; in PBS, without salmon sperm DNA)	Shift of the position of the maximum absorption peak as a function of temperature ([2]; 0° C., 20° C., 40° C. and 60° C. for 48 hours)	SMILES	Maximum excitation peak of the dye/DNA complexes (salmon sperm DNA; in PBS)	Fluorescence emission strength of the dye/DNA complexes (salmon sperm DNA)	Maximum excitation peak of the dye/RNA complexes [1]	Fluorescence emission strength of the dye/RNA complexes [1]
63.29	84	16.79	0.75	22.4	638	638	638	638	638	–	–	OCCN1C=C/C(=C\C=C\c2sc3ccc(Cl)cc3[n+]2CCO)c2ccccc21 [Dye-1]	about 660 nm	increased rapidly	about 660 nm	increased rapidly
97.56	146	23.94	0.67	35.7	–	–	–	–	640	0.67	did not shift	CC[n+]1c(/C=C/C=C2\C=CN(CCO)c3ccccc32)sc2ccc(Cl)cc21 [Dye-3]	> 655 nm	increased rapidly	> 655 nm	increased rapidly
–	–	–	–	–	638	638	638	638	638	–	–	OCCN1C=C/C(=C\C=C\c2sc3ccccc3[n+]2CCO)c2ccc(Br)cc21 [Dye-6]	–	–	–	–
